Test results from paper PMC10283052, “Intranasal delivery of mitochondrial protein humanin rescues cell death and promotes mitochondrial function in Parkinson's disease” (Theranostics, 2023).

Legend:
[1] = system: midbrain dopaminergic neurons from embryonic mouse; assay: HN-induced intracellular humanin expression, western blot, primary neurons; format: cell-based; settings: HN treatment 24 h (1 μM in Fig 2A), basal humanin undetectable
Experimental: Primary mesencephalic cell cultures were prepared using gestational day 13.5 embryos from C57BL/6J mice, as previously described. The mesencephalon was dissected from the embryos and dissociated in a medium containing 0.25% trypsin-EDTA and 0.05% DNase in PBS for 15 min at 37 °C. Tissue samples were mechanically dissociated by gentle pipetting using Pasteur pipettes. After centrifugation at 400 x g for 5 min, the cells were plated in Neurobasal-A medium (Thermo Fisher Scientific, Waltham, MA, USA) supplemented with 2% B27 supplement (Thermo Fisher Scientific), 1× Glutamax (Thermo Fisher Scientific), 5% fetal bovine serum (FBS), 0.36% D-glucose, and 1% Penicillin/Streptomycin (P/S) in poly-L-ornithine/laminin (Sigma-Aldrich)-coated plates. On day 4 in vitro (DIV), the plating medium was replaced, and the neurons were used on DIV 8 for subsequent experiments.
For HN treatment of cells, HN stock solution was first incubated at 37 ℃ with mild stirring for 0.5 h. The solution was then added to the culture medium to achieve a desirable final concentration as described above.
(§1) Mouse brain tissue samples and cells were homogenized in radioimmunoprecipitation assay (RIPA) buffer (Cell Signaling, Danvers, MA, USA) in the presence of a protease and phosphatase inhibitor cocktail (Thermo Fisher Scientific). […] The results were analyzed using the ImageJ densitometry system. […]

rat organotypic slices = assay: Ex vivo PD model, organotypic brain slices with 6-OHDA; format: cell-based; settings: then 6-OHDA 100 μM, 2 h
Experimental: Postnatal 5-7-day-old rat pups were used to prepare organotypic slices, as previously described, with minor modifications. The brain of anesthetized pups was aseptically removed. The brain hemispheres were separated and cut sagittally into 350-μm slices using a MacIlwain tissue chopper (MacIlwain, Mickle Laboratory, Cambridge, UK). The slices were transferred to ice-cold Gray's Balanced Salt solution containing CaCl2 (1.5 mM), NaCl (136 mM), KCl (5 mM), KH2PO4 (0.2 mM), MgCl2 (1 mM), MgSO4 (0.2 mM), NaHCO3 (0.2 mM), Na2PO4 (0.08 mM), and glucose (5.5 mM). […]
as §1
The organotypic slice cultures were exposed to 6-OHDA at the tissue surface on DIV 8 to avoid apoptosis due to nutrients and to induce proper maturation. […] Intracellular ATP was quantified using the CellTiter-Glo Luminescent Viability Kit (Promega Corporation, Madison, WI, USA), according to the manufacturer's protocol. Luminescence was measured using a SpectraMax L Microplate Reader (Molecular Devices).

SH-SY5Y cells = assay: Real-time qPCR of mitochondrial rRNA and humanin transcripts; format: cell-based, human
Experimental: For real-time qPCR, total RNA was extracted using TRIzol reagent (Thermo Fisher Scientific). cDNA was synthesized using a cDNA synthesis kit (Bioneer Corporation), according to the manufacturer's protocol. The mRNA levels were analyzed in a LightCycler 96 (Roche, Basel, Switzerland) using SYBR Green I master mix and SensiFAST™ SYBR® No-ROX Kit (Bioline, Paris, France). B2M (beta-2-microglobulin) gene expression was used to normalize gene expression data. The primer sequences used in this experiment are in Table S2.

JNK, p38 MAPK, AKT, ERK = assay: Signaling kinase activation in striatum of MPTP mice, western blot; format: in vivo, mouse; settings: MPTP PD mice, intranasal HN 0.1 and 5 mg/kg
Experimental: A mouse model of PD was generated using the neurotoxin MPTP-HCl (Sigma-Aldrich, St. Louis, MO, USA), as previously described. Seven- to eight-week-old male C57BL/6J mice were injected with MPTP (20 mg/kg/day) for five consecutive days for the subacute delivery of MPTP. The mice in the control group received the same volume of phosphate buffer saline (PBS).
For intranasal HN treatment, the synthetic HN peptide was delivered according to a procedure reported by Capsoni et al. The synthetic HN peptide was diluted in ddH2O to a concentration of 0.1 and 5 mg/kg for mice (total volume of 40 μL) at 37 ℃ with mild stirring. The mice were held firmly in one hand in a supine position with their head at 90°. Synthetic HN was administered in the form of 5-μL drops over 20 min in alternating nostrils every 3 min. After administration, the heads of the mice were held in the same position to prevent loss of the applied solution from the nares.
as §1, with “Scientific). The samples were sonicated on ice, and the supernatant was collected after centrifugation at 4°C at 10,000 g for 5 min.” for “Scientific).”

[2] = system: differentiated PC12 cells exposed to MPP^+; assay: Intracellular humanin in MPP+-exposed differentiated PC12 cells, western blot; format: cell-based, rat; settings: HN treatment, MPP+ exposure
Experimental: For neuronal differentiation of PC12 cells, the cells were grown in DMEM containing 1.5% horse serum, 1.5% FBS, 1% P/S, and 100 ng/mL nerve growth factor (NGF, Thermo Fisher Scientific) every 2 days. PC12 cells were differentiated for 7 days and used for subsequent experiments.
Mouse brain tissue samples and cells were homogenized in radioimmunoprecipitation assay (RIPA) buffer (Cell Signaling, Danvers, MA, USA) in the presence of a protease and phosphatase inhibitor cocktail (Thermo Fisher Scientific). The samples were sonicated on ice, and the supernatant was collected after centrifugation at 4°C at 10,000 g for 5 min. The protein samples were loaded and separated using Tris-glycine SDS-PAGE. To detect the HN peptide, the proteins were separated into three layers of tricine SDS-PAGE, as previously described. The separated proteins were transferred to nitrocellulose membranes (GenDEPOT, Barker, TX, USA). The membranes were blocked for 0.5 h, followed by incubation with appropriate primary antibodies overnight at 4°C. The primary antibodies used were as follows: anti-tyrosine hydroxylase (Cat # P40101, Pel-Freez Biologicals), anti-HN (Cat # RA19000, Neuromics), anti-β-actin (Cat # GTX109639, GeneTex, Irvine, CA, USA), and anti-GAPDH (Cat # AM4300, Thermo Fisher Scientific). […] The results were analyzed using the ImageJ densitometry system. […]

humanin (MAPRGFSCLLLLTSEIDLPVKRRA; Humanin; UniProt Q8IVG9 1-24, looked up) [HN, mitochondria-derived peptide encoded by the mitochondrial genome, synthesized by Fmoc-based SPPS at GL Biochem]
intracellular humanin expression [1]: induced its intracellular expression in a dose-dependent manner
mitochondrial biogenesis markers PGC-1α and NRF1, western blot (rat organotypic slices; HN pre-treatment 1 μM, 24 h): stimulated mitochondrial biogenesis
ATP levels (CellTiter-Glo luminescence) (rat organotypic slices; HN pre-treatment 24 h, 0.1 or 1 μM): effectively inhibited significant depletion of ATP levels
transcript levels of regions across mitochondrial rRNA and humanin (SH-SY5Y cells; up to 24 h after HN treatment, slightly declined over time): significantly upregulated up to 24 h
transcript levels of regions across mitochondrial rRNA and humanin (SH-SY5Y cells; within 3 h of HN treatment): significant upregulation
activation of JNK and p38 MAPK in striatum (JNK, p38 MAPK, AKT, ERK): inhibited the activation of JNK and p38 MAPK
activation of AKT and ERK in brain tissue (JNK, p38 MAPK, AKT, ERK; dose-dependent): promoted the activation of AKT and ERK
intracellular humanin [2]: upregulated intracellular humanin
